In publication PMC10322960 (European Journal of Drug Metabolism and Pharmacokinetics, 2023):

Columns and labels:
human liver microsomes = assay: Human liver microsome incubation with or without chemical enzyme inhibitors; assay type: in vitro ADME
OAT3 = target: T1, OAT3 (Homo sapiens, UniProt Q8TCC7); assay: OAT3 uptake inhibition assay; assay type: in vitro ADME; conditions: 0.63–40 μM
T1 sequence (Q8TCC7 1-542): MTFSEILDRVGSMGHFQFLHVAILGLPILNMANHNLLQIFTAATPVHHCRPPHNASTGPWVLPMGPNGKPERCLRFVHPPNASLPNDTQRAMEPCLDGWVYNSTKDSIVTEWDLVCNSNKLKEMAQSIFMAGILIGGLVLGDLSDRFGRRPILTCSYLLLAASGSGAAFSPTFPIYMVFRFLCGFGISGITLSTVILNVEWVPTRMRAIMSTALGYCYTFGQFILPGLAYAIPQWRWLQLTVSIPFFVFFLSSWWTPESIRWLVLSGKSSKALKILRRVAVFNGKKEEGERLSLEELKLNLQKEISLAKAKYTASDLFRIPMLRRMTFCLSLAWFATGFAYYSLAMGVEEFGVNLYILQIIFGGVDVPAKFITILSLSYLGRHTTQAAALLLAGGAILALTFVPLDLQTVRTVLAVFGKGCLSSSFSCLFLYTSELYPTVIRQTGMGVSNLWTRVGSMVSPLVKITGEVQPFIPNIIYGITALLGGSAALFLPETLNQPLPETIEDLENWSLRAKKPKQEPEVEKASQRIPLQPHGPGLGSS

CYP2C9 = CYP2C9 (Homo sapiens, UniProt P11712); assay: In vitro P450 inhibition, recombinant CYP2C9; assay type: in vitro ADME
OAT1 = target: T2, OAT1 (Homo sapiens, UniProt Q4U2R8); assay: OAT1 uptake substrate assay; assay type: in vitro ADME
T2 sequence (Q4U2R8 1-563): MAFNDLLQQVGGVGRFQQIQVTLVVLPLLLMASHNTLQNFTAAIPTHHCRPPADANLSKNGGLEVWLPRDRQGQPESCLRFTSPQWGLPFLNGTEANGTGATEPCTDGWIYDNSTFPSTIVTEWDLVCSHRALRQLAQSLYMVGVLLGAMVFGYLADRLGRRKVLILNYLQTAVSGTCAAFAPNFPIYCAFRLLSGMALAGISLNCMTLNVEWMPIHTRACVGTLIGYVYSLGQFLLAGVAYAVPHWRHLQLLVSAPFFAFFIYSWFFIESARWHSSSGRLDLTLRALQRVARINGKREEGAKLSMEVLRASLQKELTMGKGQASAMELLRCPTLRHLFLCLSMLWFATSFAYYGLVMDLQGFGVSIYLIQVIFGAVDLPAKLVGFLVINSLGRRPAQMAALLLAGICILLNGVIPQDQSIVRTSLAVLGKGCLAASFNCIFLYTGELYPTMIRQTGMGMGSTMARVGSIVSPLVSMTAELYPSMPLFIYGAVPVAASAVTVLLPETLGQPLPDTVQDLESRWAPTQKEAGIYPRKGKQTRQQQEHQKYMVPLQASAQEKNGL

OATP1B3 = target: T3, OATP1B3 (Homo sapiens, UniProt Q9NPD5); assay: OATP1B3 uptake inhibition assay; assay type: in vitro ADME; conditions: at 40 µM
T3 sequence (Q9NPD5 1-702): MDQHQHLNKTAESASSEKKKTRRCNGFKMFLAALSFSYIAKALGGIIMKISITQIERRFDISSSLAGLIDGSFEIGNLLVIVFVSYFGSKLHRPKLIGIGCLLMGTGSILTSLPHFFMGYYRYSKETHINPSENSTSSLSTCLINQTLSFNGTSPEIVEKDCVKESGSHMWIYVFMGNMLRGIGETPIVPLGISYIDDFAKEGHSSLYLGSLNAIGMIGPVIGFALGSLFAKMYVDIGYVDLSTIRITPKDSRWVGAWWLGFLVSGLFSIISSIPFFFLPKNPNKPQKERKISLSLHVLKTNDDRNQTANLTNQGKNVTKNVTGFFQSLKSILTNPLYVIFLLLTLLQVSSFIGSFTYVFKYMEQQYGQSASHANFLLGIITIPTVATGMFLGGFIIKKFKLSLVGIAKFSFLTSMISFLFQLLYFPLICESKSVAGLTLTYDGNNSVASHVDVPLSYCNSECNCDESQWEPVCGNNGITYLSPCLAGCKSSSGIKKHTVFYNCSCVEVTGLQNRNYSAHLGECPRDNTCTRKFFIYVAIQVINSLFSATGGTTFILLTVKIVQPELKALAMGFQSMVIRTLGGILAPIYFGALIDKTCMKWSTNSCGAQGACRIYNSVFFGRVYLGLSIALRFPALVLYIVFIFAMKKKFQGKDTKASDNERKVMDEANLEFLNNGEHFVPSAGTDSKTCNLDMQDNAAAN

MDR1 = MDR1 (Homo sapiens, UniProt P08183); assay: MDR1 vesicular transport inhibition assay; assay type: in vitro ADME
CYP1A2 = conditions: ocedurenone at 0.1, 1, or 10 μM, 72 h; inducer criterion 40%
CYP2C19 = CYP2C19 (Homo sapiens, UniProt P33261); assay: In vitro P450 inhibition, recombinant CYP2C19; assay type: in vitro ADME
Sequence of CYP2C19 (P33261 whole entry): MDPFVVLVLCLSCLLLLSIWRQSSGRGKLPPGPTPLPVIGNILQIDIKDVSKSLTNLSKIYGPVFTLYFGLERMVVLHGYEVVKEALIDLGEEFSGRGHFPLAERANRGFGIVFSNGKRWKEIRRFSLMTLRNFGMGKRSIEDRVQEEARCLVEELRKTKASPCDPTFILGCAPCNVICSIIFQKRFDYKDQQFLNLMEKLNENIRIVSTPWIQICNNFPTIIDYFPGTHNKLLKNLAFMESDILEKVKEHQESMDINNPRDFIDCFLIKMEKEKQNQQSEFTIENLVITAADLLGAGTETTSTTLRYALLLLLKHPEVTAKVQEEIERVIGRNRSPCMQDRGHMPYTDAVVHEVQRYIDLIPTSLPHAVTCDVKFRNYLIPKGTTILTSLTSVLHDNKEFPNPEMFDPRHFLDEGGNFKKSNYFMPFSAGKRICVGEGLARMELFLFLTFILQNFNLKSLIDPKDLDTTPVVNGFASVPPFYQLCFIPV

Sequence of MDR1 (P08183 whole entry): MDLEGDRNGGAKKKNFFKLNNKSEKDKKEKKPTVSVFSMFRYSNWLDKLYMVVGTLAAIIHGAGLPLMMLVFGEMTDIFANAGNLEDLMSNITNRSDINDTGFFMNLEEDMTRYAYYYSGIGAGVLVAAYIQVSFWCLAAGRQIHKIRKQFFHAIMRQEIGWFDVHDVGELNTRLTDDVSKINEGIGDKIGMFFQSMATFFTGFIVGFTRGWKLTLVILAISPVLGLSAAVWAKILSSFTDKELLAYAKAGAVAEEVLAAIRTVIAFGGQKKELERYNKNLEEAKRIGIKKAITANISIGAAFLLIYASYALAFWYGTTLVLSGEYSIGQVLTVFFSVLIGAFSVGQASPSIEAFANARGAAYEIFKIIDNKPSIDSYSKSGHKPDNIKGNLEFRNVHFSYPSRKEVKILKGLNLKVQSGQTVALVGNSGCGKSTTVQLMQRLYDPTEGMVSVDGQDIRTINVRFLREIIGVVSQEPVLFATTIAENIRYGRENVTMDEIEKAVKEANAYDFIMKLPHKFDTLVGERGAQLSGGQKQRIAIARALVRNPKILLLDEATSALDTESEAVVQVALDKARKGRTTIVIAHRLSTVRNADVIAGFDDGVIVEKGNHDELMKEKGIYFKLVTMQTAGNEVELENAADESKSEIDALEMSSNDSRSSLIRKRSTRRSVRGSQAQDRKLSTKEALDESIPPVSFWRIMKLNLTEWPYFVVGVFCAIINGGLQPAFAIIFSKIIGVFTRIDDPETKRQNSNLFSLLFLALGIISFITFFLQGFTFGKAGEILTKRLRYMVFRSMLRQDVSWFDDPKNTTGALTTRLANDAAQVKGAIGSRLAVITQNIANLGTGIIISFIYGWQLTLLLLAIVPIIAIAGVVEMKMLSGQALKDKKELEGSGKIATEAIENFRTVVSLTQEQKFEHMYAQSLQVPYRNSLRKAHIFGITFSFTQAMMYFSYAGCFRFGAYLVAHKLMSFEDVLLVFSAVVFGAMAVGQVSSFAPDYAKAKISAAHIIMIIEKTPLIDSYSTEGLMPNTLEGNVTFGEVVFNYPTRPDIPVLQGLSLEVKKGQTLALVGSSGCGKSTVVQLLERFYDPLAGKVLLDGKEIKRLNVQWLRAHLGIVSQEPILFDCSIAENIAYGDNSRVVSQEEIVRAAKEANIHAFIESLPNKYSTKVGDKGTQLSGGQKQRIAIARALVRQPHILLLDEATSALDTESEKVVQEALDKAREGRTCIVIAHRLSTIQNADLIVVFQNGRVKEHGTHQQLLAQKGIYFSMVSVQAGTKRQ
Sequence of CYP2C9 (P11712 whole entry): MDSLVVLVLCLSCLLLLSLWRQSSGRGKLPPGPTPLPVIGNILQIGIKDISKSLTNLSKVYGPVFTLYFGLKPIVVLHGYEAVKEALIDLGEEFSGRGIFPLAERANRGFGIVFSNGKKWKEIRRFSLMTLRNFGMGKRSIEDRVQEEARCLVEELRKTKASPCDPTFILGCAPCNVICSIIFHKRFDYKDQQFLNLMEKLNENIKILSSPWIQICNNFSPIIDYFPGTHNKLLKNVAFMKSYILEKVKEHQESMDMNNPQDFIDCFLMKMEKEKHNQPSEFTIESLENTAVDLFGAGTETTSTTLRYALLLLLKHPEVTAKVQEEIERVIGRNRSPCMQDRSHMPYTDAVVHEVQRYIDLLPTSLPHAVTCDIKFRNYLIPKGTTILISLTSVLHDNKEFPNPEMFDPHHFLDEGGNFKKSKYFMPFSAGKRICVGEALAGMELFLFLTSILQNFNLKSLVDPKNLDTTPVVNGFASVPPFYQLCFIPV

N#Cc1ccc(N2N=C3c4ccc(C(=O)N5CCC(O)CC5)nc4CC[C@@H]3[C@@H]2C2CCCC2)cc1Cl [Ocedurenone, ocedurenone]
stability in human hepatic microsomes (human liver microsomes): stable
ocedurenone metabolism in HLM with chemical inhibitor added (human liver microsomes; 1-aminobenzotriazole or ketoconazole added separately, 3 µm ocedurenone): inhibited
interaction with human OAT3 transporter (inhibition) (OAT3): No interaction
percent remaining activity of CYP2C9 (CYP2C9; ocedurenone at 200 μM): 70.2%
IC50 (CYP2C9; read-out: IC50 CYP2C9, recombinant CYP): > 200 µM
inhibition category CYP2C9 (CYP2C9; recombinant enzyme): little or no inhibition
Substrate, OAT1 UPT (OAT1): not likely to be a substrate
Maximum fold accumulation, OAT1 UPT (OAT1; transporter-expressing vs control cells, 0.04–40 µm): 1.1
maximum inhibition of OATP1B3-mediated probe substrate accumulation (OATP1B3): 58%
inhibition of MDR1 at 40 µM (MDR1; first vesicular transport run, 40 µM): 99%
IC50 (MDR1; read-out: Inhibition results (IC50), MDR1 VT, probe NMQ (1 µm)): 2.5 µM
maximum inhibition of MDR1-mediated transport (MDR1; repeat with 7 concentrations): 100%
percent CYP1A2 induction (of positive control) (CYP1A2): lower than 40%
percent remaining activity of CYP2C19 (CYP2C19; ocedurenone at 200 μM): 78.5%
IC50 (CYP2C19; read-out: IC50 CYP2C19, recombinant CYP): > 200 µM
inhibition category CYP2C19 (CYP2C19; recombinant enzyme): little or no inhibition
